SMILES strings stand for the structures.

What all share (assay type): functional
For assay [1], the system named is Mus musculus. Briefly: Compound was evaluated for anticonvulsant activity against PTZ-induced clonic seizures at the 125 mg/kg dose; 4/4.
Assay [2] has as its system Mus musculus. Briefly: Compound was evaluated for anticonvulsant activity against PTZ-induced tonic seizures at the 62.5 mg/kg dose; 4/4.
Assay [3] has as its system Mus musculus. Briefly: Compound was evaluated for anticonvulsant activity against PTZ-induced tonic seizures at the 125 mg/kg dose; 4/4.
Assay [4] deals with Mus musculus. The assay is described as follows: Compound was evaluated for anticonvulsant activity against PTZ-induced tonic seizures at the 250 mg/kg dose; 4/4.
Assay [5] relates to Mus musculus. The assay is described as follows: Compound was evaluated for anticonvulsant activity against PTZ-induced clonic seizures at the 250 mg/kg dose; 4/4.
The subject of assay [6] is Mus musculus. The assay is described as follows: Compound was evaluated for anticonvulsant activity against PTZ-induced clonic seizures at 62.5 mg/kg dose; 4/4.
Assay [7] concerns Mus musculus. The assay is described as follows: Compound was evaluated for anticonvulsant activity against PTZ-induced clonic seizures at the 100 mg/kg dose; 5/5.
Assay [8] deals with Mus musculus. Briefly: Compound was evaluated for anticonvulsant activity against PTZ-induced tonic seizures at the 100 mg/kg dose; 5/5.
Assay [9] concerns Mus musculus. Briefly: Compound was evaluated for anticonvulsant activity against PTZ-induced tonic seizures at the 500 mg/kg dose; 1/5.
The subject of assay [10] is Mus musculus. Briefly: Compound was evaluated for anticonvulsant activity against PTZ-induced clonic seizures at the 500 mg/kg dose; 3/5.
The subject of assay [11] is Mus musculus. Briefly: Compound was evaluated for anticonvulsant activity against PTZ-induced tonic seizures at the 250 mg/kg dose; 3/5.
Assay [12] relates to Mus musculus. Briefly: Compound was evaluated for anticonvulsant activity against PTZ-induced clonic seizures at the 250 mg/kg dose; 3/5.

For the compound `CCC1(C)CCOC1=O` (configuration not stated), the “Mean time to seizure” value in assay [1] was 365 s; in [2], 1015 s; in assay [3] it was 1078 s; in assay [4] it was 844 s; in [5], 163 s; in assay [6] it was 150 s.

In the case of `CCC1(C)CCSC1=S` (configuration not stated), the “Mean time to seizure” value is 87 s in assay [7], 728 s in assay [8], 1200 s in assay [9] and 218 s in [10].

On to `CCC1(C)CCOC1=S` (configuration not stated), for which the “Mean time to seizure” value is 341 s in [11] and 155 s in assay [12].

Source of the values: ChEMBL document CHEMBL1123241, “Alkyl-substituted thiolo-, thiono-, and dithio-gamma-butyrolactones: new classes of convulsant and anticonvulsant agents” (1986).
